Patent publication US20110306671A1, “AMIDE DERIVATIVES OF ETHACRYNIC ACID” (The Regents of the The University of California, priority 2008, published 2011)
One block for each molecule: values may come before it.

How the values were obtained:
Wnt/β-catenin signaling = test: TOPflash reporter assay in transfected HEK293 cells; format: cell-based, human; conditions: for effect on EA-induced inhibition of Wnt/β-catenin signaling: TOPflash + Dvl, 50 μM EA with 1 mM NAC, 100 μM PDTC or 100 μM BHA, 24 hours
Primary CLL cells [1] = test: Cell apoptosis assay (DiOC6/PI flow cytometry) in primary CLL cells; format: cell-based, human; conditions: 3 μM EA with NAC 1 mM or BHA 100 μM, 48 hours
Primary CLL cells [2] = test: Cell viability assay (MTT) with primary CLL cells; conditions: for EC50: read-out: CLL Inhibition EC50, CLL survival, MTT, 48 hours
Wnt signaling = test: CellSensor LEF/TCF-bla SW480 cell-based assay (Wnt signaling inhibition); parameters: species or system human; conditions: for IC50: LEF/TCF-bla SW480 cells, 20 hours
Protocol: To determine the specificity of compounds on Wnt/[…]-catenin pathway inhibition, CellSensor LEF/TCF-bla SW480 cell-based assay (Invitrogen, Carlsbad, Calif.) was used according to the supplier's instructions, but modified for a 96 well format. Cells were plated at 25,000 cells/well in assay medium in 96-well black plates with clear bottom (Corning) the day prior to compound treatment.

Normal PBMC = test: Cell viability assay (MTT) with normal peripheral blood mononuclear cells; format: cell-based, human; conditions: data not shown
[3] = system: lymphoma and myeloma cells; conditions: Schmidt et al., 2009; cited from earlier work

Compound: COc1ccc(O)c(C(C)(C)C)c1 [BHA, 3-t-butyl-4-hydroxyanisole]
effect on EA-induced inhibition of Wnt/β-catenin signaling (Wnt/β-catenin signaling): did not reverse | protection of CLL cells from EA-induced apoptosis (Primary CLL cells [1]): had no effect

Compound: CCCCS(=N)(=O)CCC(N)C(=O)O (stereo not drawn) [BSO, buthionine sulfoximine]
effect on Wnt/β-catenin signaling (Wnt/β-catenin signaling; cell-based system, data not shown): did not inhibit

Compound: C=C(CC)C(=O)c1ccc(OCC(=O)Nc2ccc(C(N)=O)cc2)c(Cl)c1Cl [Compound 4]
EC50 (Primary CLL cells [2]): 3.7 µM | IC50 (Wnt signaling): 4.76 µM

Compound: C=C(CC)C(=O)c1ccc(OCC(=O)NO)c(Cl)c1Cl [Compound 5]
EC50 (Primary CLL cells [2]): 4.5 µM | IC50 (Wnt signaling): 9.89 µM

Compound: C=C(CC)C(=O)c1ccc(OCC(=O)Nc2ccc(C(=O)O)cc2)c(Cl)c1Cl [Compound 6]
EC50 (Primary CLL cells [2]): 5 µM | IC50 (Wnt signaling): 5.81 µM

Compound: C=C(CC)C(=O)c1ccc(OCC(=O)NC(CS)C(=O)OCC)c(Cl)c1Cl (stereo not drawn) [Compound 7]
EC50 (Primary CLL cells [2]): 4.8 µM | IC50 (Wnt signaling): > 50 µM

Compound: C=C(CC)C(=O)c1ccc(OCC(=O)Nc2ccc(C#N)cc2)c(Cl)c1Cl [Compound 8]
EC50 (Primary CLL cells [2]): 7.8 µM | IC50 (Wnt signaling): 6.84 µM

Compound: C=C(CC)C(=O)c1ccc(OCC(=O)Nc2ccc(Cl)c(C(=O)O)c2)c(Cl)c1Cl [Compound 9]
EC50 (Primary CLL cells [2]): 15.9 µM | IC50 (Wnt signaling): > 50 µM

Compound: C=C(CC)C(=O)c1ccc(OCC(=O)Nc2cc(Cl)ccc2C(=O)O)c(Cl)c1Cl [Compound 10]
EC50 (Primary CLL cells [2]): 13.8 µM | IC50 (Wnt signaling): 9.62 µM

Compound: C=C(CC)C(=O)c1ccc(OCC(=O)Nc2cc(OC)c(OC)cc2C(=O)O)c(Cl)c1Cl [Compound 11]
EC50 (Primary CLL cells [2]): 21.9 µM | IC50 (Wnt signaling): > 50 µM

Compound: C=C(CC)C(=O)c1ccc(OCC(=O)Nc2ccc3c(c2)C(=O)NC3=O)c(Cl)c1Cl [Compound 12]
EC50 (Primary CLL cells [2]): 2.5 µM | IC50 (Wnt signaling): 4.88 µM

Compound: C=C(CC)C(=O)c1ccc(OCC(=O)Nc2nc3ccccc3s2)c(Cl)c1Cl [Compound 13]
EC50 (Primary CLL cells [2]): 1.5 µM | IC50 (Wnt signaling): 4.86 µM

Compound: C=C(CC)C(=O)c1ccc(OCC(=O)NC2CCN(CC(=O)OC)CC2)c(Cl)c1Cl [Compound 18]
EC50 (Primary CLL cells [2]): 10.6 µM | IC50 (Wnt signaling): > 50 µM

Compound: C=C(CC)C(=O)c1ccc(OCC(=O)Nc2cccc(C(=O)O)c2)c(Cl)c1Cl [Compound 19]
EC50 (Primary CLL cells [2]): 20.6 µM | IC50 (Wnt signaling): 5.85 µM

Compound: C=C(CC)C(=O)c1ccc(OCC(=O)NCCc2c[nH]c3ccccc23)c(Cl)c1Cl [Compound 20]
EC50 (Primary CLL cells [2]): 5.9 µM | IC50 (Wnt signaling): 10.7 µM

Compound: C=C(CC)C(=O)c1ccc(OCC(=O)Nc2ccc(C(=O)O)cn2)c(Cl)c1Cl [Compound 21]
EC50 (Primary CLL cells [2]): 14.9 µM | IC50 (Wnt signaling): > 50 µM

Compound: C=C(CC)C(=O)c1ccc(OCC(=O)Nc2ccc(C(=O)O)c(O)c2)c(Cl)c1Cl [Compound 22]
EC50 (Primary CLL cells [2]): > 25 µM | IC50 (Wnt signaling): > 50 µM

Compound: C=C(CC)C(=O)c1ccc(OCC(=O)Nc2ccc(C(=O)OC)cc2)c(Cl)c1Cl [Compound 23]
EC50 (Primary CLL cells [2]): 4.1 µM | IC50 (Wnt signaling): 11.4 µM

Compound: C=C(CC)C(=O)c1ccc(OCC(=O)Nc2ccc(Cc3ccc(N4C(=O)C5C6C=CC(C6)C5C4=O)cc3)cc2)c(Cl)c1Cl (stereo not drawn) [Compound 27]
EC50 (Primary CLL cells [2]): 1.8 µM | IC50 (Wnt signaling): 2.93 µM

Compound: C=C(CC)C(=O)c1ccc(OCC(=O)Nc2ccc(C(C)=O)cc2)c(Cl)c1Cl [Compound 28]
EC50 (Primary CLL cells [2]): 3.9 µM | IC50 (Wnt signaling): 5.06 µM

Compound: C=C(CC)C(=O)c1ccc(OCC(=O)Nc2ccc3[nH]cnc3c2)c(Cl)c1Cl [Compound 29]
decrease of CLL survival (in words) (Primary CLL cells [2]): low micromolar concentrations | EC50 (Primary CLL cells [2]): 3.2 µM | inhibition of Wnt signaling (in words) (Wnt signaling): low micromolar concentrations | IC50 (Wnt signaling): 3.62 µM

Compound: C=C(CC)C(=O)c1ccc(OCC(=O)Nc2nc(C(=NOC)C(=O)O)cs2)c(Cl)c1Cl [Compound 30]
EC50 (Primary CLL cells [2]): > 25 µM | IC50 (Wnt signaling): > 50 µM

Compound: C=C(CC)C(=O)c1ccc(OCC(=O)Nc2ccc(C(=O)NC(CCC(=O)OCC)C(=O)OCC)cc2)c(Cl)c1Cl (stereo not drawn) [Compound 31]
decrease of CLL survival (in words) (Primary CLL cells [2]): low micromolar concentrations | EC50 (Primary CLL cells [2]): 2.1 µM | inhibition of Wnt signaling (in words) (Wnt signaling): low micromolar concentrations | IC50 (Wnt signaling): 2.61 µM

Compound: C=C(CC)C(=O)c1ccc(OCC(=O)Nc2ccc3c(c2)C(=O)c2ccccc2C3=O)c(Cl)c1Cl [Compound 32]
EC50 (Primary CLL cells [2]): 2.1 µM | IC50 (Wnt signaling): 2.97 µM

Compound: C=C(CC)C(=O)c1ccc(OCC(=O)NCCCN2CCCC2=O)c(Cl)c1Cl [Compound 33]
EC50 (Primary CLL cells [2]): 13.8 µM | IC50 (Wnt signaling): > 50 µM

Compound: C=C(CC)C(=O)c1ccc(OCC(=O)Nc2ccc(C=CC(=O)OCC)cc2)c(Cl)c1Cl [Compound 38]
EC50 (Primary CLL cells [2]): 1.7 µM | IC50 (Wnt signaling): 3.79 µM

IC50 (Wnt signaling; Homo sapiens): > 50 µM
Compound: CCC(C)C(=O)c1ccc(OCC(=O)O)c(Cl)c1Cl (stereo not drawn) [Compound 42]
decrease of CLL survival (in words) (Primary CLL cells [2]): completely abrogated | EC50 (Primary CLL cells [2]): > 25 µM | inhibition of Wnt signaling (in words) (Wnt signaling): completely abrogated

Compound: C=C(CC)C(=O)c1ccc(OC)c(Cl)c1Cl [Compound 43]
toxicity to peripheral blood mononuclear cells (PBMC) (Normal PBMC): highly toxic

Compound: CC(=O)N[C@@H](CS)C(=O)O [NAC, N-acetyl-L-cysteine]
effect on EA-induced inhibition of Wnt/β-catenin signaling (Wnt/β-catenin signaling): significantly prevented | protection of CLL cells from EA-induced apoptosis (Primary CLL cells [1]): significantly protected

Compound: Cc1cc(C2CCCCC2)n(O)c(=O)c1 [cic, ciclopiroxolamine]
induction of apoptosis [3]: significant induction of apoptosis
